Data: US10512700B2, “Radiohalide-labeled targeted diagnostics and therapeutics” (Memorial Sloan Kettering Cancer Center, priority 2014, dated 2019)
Where “and” joins values, the source holds several entries; their conditions need not be identical. Identical values can stand only once.

Legend:
[1] = Stability in whole blood (in vitro); assay type: in vitro ADME, mouse
Description: […] […] The sample was centrifuged at 3000 RCF for 3 min at 4° C., and the supernatant collected. This procedure was repeated three times, and the combined supernatants analyzed by HPLC equipped with radioactive detector (Shimadzu, Kyoto, Japan), collecting samples every 30 sec. Radioactivity of each fraction was measured on a Wizard 2470 Automatic Gamma Counter (Perkin Elmer, Waltham, Mass.) and the blood stability was analyzed using Prism 6.0c (GraphPad Software, La Jolla, Calif.).

[2] = system: orthotopic U251 MG tumor-bearing mice; test: Autoradiography using C-2d; assay type: in vivo, mouse
Description: U251 MG glioblastoma cells (5×10^4 in 2 μL of PBS) were orthotopically implanted in athymic nude mice, using a stereotaxic device, and the tumors allowed to grow for approximately 4 weeks. […] Additionally, healthy mice were also injected with 500 μCi C-2d. After 2 h of circulation time after the C-2d injection, the mice were sacrificed. Liver, tumor, muscle, and brain tissues were excised and embedded in O.C.T. compound (Sakura Finetek, Torrance, Calif.) and frozen at −20° C., and a series of 8 μm frozen sections was cut and mounted on microscope slides. To determine radiotracer distribution, digital autoradiography was performed by placing tissue sections in a film cassette against a phosphor image plate (BASMS-2325; Fujifilm) for 48 h at −20° C. Phosphor imaging plates were read at a pixel resolution of 25 μm with a Typhoon 7000IP plate reader (GE Healthcare, Piscataway, N.J.) (images not shown). After autoradiographic exposure, the same frozen sections were then used for […] staining. Areas of brain slides containing tumor tissue were identified using the H&E staining and then overlaid with the autoradiographic data (images not shown). Intensity of tumor areas and non-tumor areas were then quantified using ImageJ 1.47 u (see FIGS. 5A and 5B).

[3] = system: U251 MG tumor bearing mice; test: Biodistribution; assay type: in vivo, mouse; settings: C-2d, i.v., 2 h post injection
Description: Biodistribution studies were conducted on female nude mice (8-10 weeks old and 20-25 g in weight, n=21) bearing U251 MG subcutaneous xenografts. The radiolabeled preparation (20-30 μCi of compound C-2d (^131I) in 200 μL of a solution 90% PBS 10% PEG300) was administrated via the lateral tail vein. The compound was allowed to circulate for 2 h post injection at which time mice were sacrificed and organs were harvested (n=3). The radioactive content in tissue of interest (blood, tumor, muscle, bone, liver, spleen, kidney, heart, lung, pancreas, brain, skin, small intestine, large intestine, stomach, tail, thyroid and feces) was measured on a Wizard 2470 Automatic Gamma Counter, and the tissue-associated activity was calculated as the mean % ID/g using the following formula: [(activity in the target organ/grams of tissue)/injected dose]×100%.
Biodistribution studies were performed in subcutaneous U251 MG xenograft bearing athymic nude mice (n=12). Mice were divided in two groups (blocked and unblocked) and administered with C-2f (approximately 50 μCi, 45 mCi/μmol in […], 10% EtOH in 0.9% sterile saline) via tail vein injection. […] Mice were sacrificed by CO2 asphyxiation at 120 min post injection and major organs were collected, weighed, and counted in a WIZARD^2 automatic γ-counter (PerkinElmer, Boston, Mass.). The radiopharmaceutical uptake was expressed as a percentage of injected dose per gram (% ID/g) using the following formula: [(activity in the target organ/grams of tissue)/injected dose]×100%.

[4] = autoradiography, mice that received no olaparib

in vitro blood stability ([1]; mouse blood, 37° C., over 60 min): confirmed the stability of the compound | in vitro blood stability ([1]; over the course of 120 minutes): confirmed the stability of the compound | signal intensity in tumor tissue vs healthy brain tissue [2, 4]: 15.7 fold | signal intensity in tumor tissue vs muscle tissue [2, 4]: 6.2 fold | autoradiography signal, muscle ([2]; with olaparib treatment): 248±72 AU | autoradiography signal, tumor tissue ([2]; with olaparib treatment): 536±87 AU | autoradiography signal, muscle ([2]; without olaparib treatment): 192±20 AU | autoradiography signal, tumor tissue ([2]; without olaparib treatment): 1222±203 AU | % ID/g, Blood [3]: 0.27 % ID/g | % ID/g, Bone [3]: 0.07 % ID/g | % ID/g, Brain [3]: 0.011±0.003 % ID/g and 0.01 % ID/g | % ID/g, Feces [3]: 4.34 % ID/g | % ID/g, Heart [3]: 0.16 % ID/g | % ID/g, Kidneys [3]: 0.61 % ID/g | % ID/g, Large intestine [3]: 1.26 % ID/g | % ID/g, Liver [3]: 2.34 % ID/g | % ID/g, Lung [3]: 0.28 % ID/g | % ID/g, Muscle [3]: 0.03±0.01 % ID/g and 0.03 % ID/g | % ID/g, Pancreas [3]: 0.15 % ID/g | % ID/g, Skin [3]: 0.25 % ID/g | % ID/g, Small intestine [3]: 11.70 % ID/g | % ID/g, Spleen [3]: 0.40 % ID/g | % ID/g, Stomach [3]: 0.88 % ID/g | % ID/g, Tail [3]: 0.60 % ID/g | % ID/g, Thyroid [3]: 0.24 % ID/g | % ID/g, Tumor [3]: 0.43±0.06 % ID/g and 0.43 % ID/g
SMILES: O=C(c1ccc([131I])cc1)N1CCN(C(=O)c2cc(Cc3n[nH]c(=O)c4ccccc34)ccc2F)CC1 [C-2d (^131I)]
reduction in intensity of the autoradiography signal in tumor tissue ([2]; mice treated with olaparib): 65%
